Experimental findings from patent US20070037263A1, “Novel acetoacetyl-coa reductase and process for producing optically active alcohol” (priority 2003, published 2007) are described below.

For this assay, the system named is RAX (acetoacetyl-CoA reductase). Description: Ethyl 4-chloroacetoacetate reducing activity of RAX in the presence of inhibitors. Particulars: for enzyme activity inhibited (in words): summary of Table 1. The assay is classed as biochemical.
Setting [1] is: inhibitor 1.0 mM, 10 mM ethyl 4-chloroacetoacetate, 0.25 mM NADPH, pH 6.5, 30° C., 3 minutes, activity without inhibitor = 100%.

Consider `CCN1C(=O)C=CC1=O` [N-Ethylmaleimide], for which the Relative activity under setting [1] came out at 103%.
`O=S(=O)([O-])[O-].[Zn+2]` [ZnSO4]: the Relative activity under setting [1] was determined as 81%.
For the molecule `O=C(O)CI` [Iodoacetic acid], the Relative activity (pH 6.5) turned out to be 98%.
Consider `[Cl-].[Cl-].[Co+2]` [CoCl2], for which, where the note is “pH 6.5”, the Relative activity amounted to 108%.
In the case of `[Cl][Mn][Cl]` [MnCl2], the Relative activity under setting [1] came to 97%.
As for `O=S(=O)([O-])[O-].[Mg+2]` [MgSO4], under setting [1], the Relative activity worked out at 100%.
Take `O=S(=O)([O-])[O-].[Cu+2]` [CuSO4, copper sulfate]: the “enzyme activity inhibited (in words)” value is “inhibited”. The Relative activity under setting [1] came to 0%.
Turning to `[Cl][Hg][Cl]` [HgCl2, mercury chloride], the “enzyme activity inhibited (in words)” value is “inhibited”. For the same molecule, the Relative activity (inhibitor 0.01 mM, 10 mM ethyl 4-chloroacetoacetate, 0.25 mM NADPH, pH 6.5, 30° C., 3 minutes, activity without inhibitor = 100%) came out at 0%.
With `O=C(O)c1cc[c]([Hg][Cl])cc1` [p-Chloromercuribenzoic acid], the “enzyme activity inhibited (in words)” value is “inhibited”. The Relative activity under setting [1] was found to be 0%.
Consider `O=S(=O)(F)Cc1ccccc1` [Phenylmethylsulfonyl fluoride], for which, under setting [1], the Relative activity is reported as 108%.
`O=C(O)CN(CCN(CC(=O)O)CC(=O)O)CC(=O)O` [EDTA]: the Relative activity (pH 6.5) came out at 83%.
Regarding `O=[N+]([O-])[O-].[Ag+]` [AgNO3, silver nitrate], the “enzyme activity inhibited (in words)” value was “inhibited”. Where the note is “inhibitor 0.1 mM, 10 mM ethyl 4-chloroacetoacetate, 0.25 mM NADPH, pH 6.5, 30° C., 3 minutes, activity without inhibitor = 100%”, the Relative activity is 0%.
